{"source": "PubChem BioAssay AID493060", "about": "(The Scripps Research Institute Molecular Screening Center, 2011)", "target": "Aryl hydrocarbon receptor (Homo sapiens) (UniProt P35869)", "sequence (P35869 whole entry, looked up)": "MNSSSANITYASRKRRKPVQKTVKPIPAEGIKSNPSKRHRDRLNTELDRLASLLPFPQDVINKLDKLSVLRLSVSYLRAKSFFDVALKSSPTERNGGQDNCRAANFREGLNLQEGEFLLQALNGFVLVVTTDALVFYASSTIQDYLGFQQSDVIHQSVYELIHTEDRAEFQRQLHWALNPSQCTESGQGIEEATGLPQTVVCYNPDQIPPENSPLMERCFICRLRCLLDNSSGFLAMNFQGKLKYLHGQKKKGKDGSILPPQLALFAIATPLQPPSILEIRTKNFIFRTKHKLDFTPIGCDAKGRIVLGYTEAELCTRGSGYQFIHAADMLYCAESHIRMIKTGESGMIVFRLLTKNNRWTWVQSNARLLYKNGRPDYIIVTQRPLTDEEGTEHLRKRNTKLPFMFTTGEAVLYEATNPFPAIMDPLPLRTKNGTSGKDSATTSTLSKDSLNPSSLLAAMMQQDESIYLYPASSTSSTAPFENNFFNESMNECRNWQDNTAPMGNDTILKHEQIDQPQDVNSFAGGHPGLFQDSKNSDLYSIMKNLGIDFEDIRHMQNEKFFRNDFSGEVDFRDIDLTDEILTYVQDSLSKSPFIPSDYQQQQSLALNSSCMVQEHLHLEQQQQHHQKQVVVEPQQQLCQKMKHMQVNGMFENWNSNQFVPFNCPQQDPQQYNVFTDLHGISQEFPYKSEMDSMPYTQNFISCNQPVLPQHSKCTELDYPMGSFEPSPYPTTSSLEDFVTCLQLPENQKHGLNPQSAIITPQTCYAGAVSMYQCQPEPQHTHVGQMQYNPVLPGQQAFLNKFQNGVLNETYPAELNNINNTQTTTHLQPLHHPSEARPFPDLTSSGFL", "experiment": "AHR activator potency, dose response, cell-based, luminescence, luciferase reporter, human (AID 493060)", "details": "Human cell line AHR-responsive luciferase reporter", "note": "Activity calls are given as the source filed them. The rule behind the calls is not given here."}
{"smiles": "O=C(Nc1ccon1)c1cnc2sccn2c1=O", "values": [{"measurement": "EC50", "value": "inactive"}]}
{"smiles": "CCOC(=O)Cc1cc(-c2ccc(O)cc2)nc2ccc3ccccc3c12", "values": [{"measurement": "EC50", "value": 1080, "unit": "nM"}]}
{"smiles": "COc1ccc(NC(=O)c2cccc3c(Br)cccc23)cc1", "values": [{"measurement": "EC50", "value": 1860, "unit": "nM"}]}
{"smiles": "O=C(CN1CCOCC1)Nc1nc2ccc([N+](=O)[O-])cc2s1", "values": [{"measurement": "EC50", "value": 6250, "unit": "nM"}]}
{"smiles": "Cc1ccccc1-c1nc(-c2cccnc2)no1", "values": [{"measurement": "EC50", "value": 1330, "unit": "nM"}]}
{"smiles": "COc1ccc(Cl)cc1C(=O)Nc1ccc(N(C)C(C)=O)cc1", "values": [{"measurement": "EC50", "value": 2410, "unit": "nM"}]}
{"smiles": "Cc1ccc(-c2cc(-c3cccs3)[nH]n2)c(O)c1", "values": [{"measurement": "EC50", "value": 853, "unit": "nM"}]}
{"smiles": "Cc1ccc(Nc2ncccc2C(N)=O)cc1", "values": [{"measurement": "EC50", "value": 1130, "unit": "nM"}]}
{"smiles": "CCCC(=O)Nc1nn(C)c2nc3cc(C)ccc3cc12", "values": [{"measurement": "EC50", "value": 250, "unit": "nM"}]}
{"smiles": "Cc1c(-c2ccn[nH]2)cc(NC(=O)c2ccc(Cl)cc2)c(=O)n1N", "values": [{"measurement": "EC50", "value": 513, "unit": "nM"}]}
{"smiles": "COc1ccccc1NC(=O)c1ccc2c(c1)nnn2C", "values": [{"measurement": "EC50", "value": 139, "unit": "nM"}]}
{"smiles": "Cc1cc(Nc2ccc(Br)cc2)n2nc(C)nc2n1", "values": [{"measurement": "EC50", "value": 217, "unit": "nM"}]}
{"smiles": "COc1ccccc1C(=O)Nc1ccc(N2CCCCC2)cc1", "values": [{"measurement": "EC50", "value": 2980, "unit": "nM"}]}
{"smiles": "CCOc1ccc(-c2cc(C)n3nc(C(N)=O)cc3n2)cc1", "values": [{"measurement": "EC50", "value": 1340, "unit": "nM"}]}
{"smiles": "Cc1nc(N)nc(Nc2ccc(Cl)cc2)c1Br", "values": [{"measurement": "EC50", "value": 1400, "unit": "nM"}]}
{"smiles": "COc1ccccc1NC(=O)Nc1cccnc1", "values": [{"measurement": "EC50", "value": 1470, "unit": "nM"}]}
{"smiles": "CCOc1ccc(NC(=O)c2cc3ccccc3cc2OC)cc1", "values": [{"measurement": "EC50", "value": 1780, "unit": "nM"}]}
{"smiles": "CN1CCN(CCCNC(=O)c2cc3c(-c4ccc(Cl)cc4)nn(C)c3s2)CC1", "values": [{"measurement": "EC50", "value": 282, "unit": "nM"}]}
{"smiles": "CN(C)c1nc(N)nc(-c2nc3ccccc3s2)n1", "values": [{"measurement": "EC50", "value": 3330, "unit": "nM"}]}
{"smiles": "COc1ccc(C(=O)Nc2cc(OC)c(NC(=O)c3ccco3)cc2OC)cc1", "values": [{"measurement": "EC50", "value": 1620, "unit": "nM"}]}
{"smiles": "COc1cc2c(cc1NC(=O)Nc1ccc(C)cc1)oc1ccccc12", "values": [{"measurement": "EC50", "value": 889, "unit": "nM"}]}
{"smiles": "CCC(=O)Nc1cc(OC)c(NC(=O)c2ccccc2)cc1OC", "values": [{"measurement": "EC50", "value": 2490, "unit": "nM"}]}
{"smiles": "Cn1c(C(=O)N2CCC(C(N)=O)CC2)cc2cc(Cl)ccc21", "values": [{"measurement": "EC50", "value": 260, "unit": "nM"}]}
{"smiles": "CCOc1ccccc1NC(=O)c1ccc2nccnc2c1", "values": [{"measurement": "EC50", "value": 2840, "unit": "nM"}]}
{"smiles": "COc1cc2ccccc2cc1C(=O)Nc1ccc(C)cc1", "values": [{"measurement": "EC50", "value": 747, "unit": "nM"}]}
{"smiles": "O=C1c2ccccc2-c2nc3ccccc3nc21", "values": [{"measurement": "EC50", "value": 3240, "unit": "nM"}]}
{"smiles": "Cn1c(N)c(C(=O)Nc2ccccc2F)sc1=S", "values": [{"measurement": "EC50", "value": 767, "unit": "nM"}]}
{"smiles": "CC(=O)c1ccc(NC(=O)c2cc(Cl)nc3ccccc23)cc1", "values": [{"measurement": "EC50", "value": 968, "unit": "nM"}]}
{"smiles": "Cc1csc(SCC(=O)Nc2ccc(Cl)cn2)n1", "values": [{"measurement": "EC50", "value": 683, "unit": "nM"}]}
{"smiles": "COC(=O)c1ccccc1NC(=O)Cn1ccnc1", "values": [{"measurement": "EC50", "value": 2570, "unit": "nM"}]}
